{"source": "paper PMC5289470", "about": "“The biodistribution of 5-[^18F]fluoropyrazinamide in Mycobacterium tuberculosis-infected mice determined by positron emission tomography” (PLoS ONE, 2017)", "origin": "cited, not measured here", "tested_on": "PZA-resistant M. tuberculosis isolates", "details": "ref [14], [30]; cited from earlier work"}
{"smiles": "NC(=O)c1cnc(Cl)cn1", "note": "[5-Cl-PZA, 5-Chloropyrazinamide]", "values": [{"measurement": "in vitro activity against PZA-resistant M. tuberculosis isolates", "result": "has in vitro activity"}]}
